Measurements as given in publication PMC5350173, “Acute effects of N‐terminal progastrin fragments on gastric acid secretion in man” (Physiological Reports, 2017).
No end group written: not given here.

Test: Plasma concentration of infused peptides by radioimmunoassay

Sequence: SWKPRSQQPDAPLGTGANR [progastrin fragment 1‐19]
- Plasma concentration relative to that of progastrin fragment 1‐35 in experiment D (fragment 1‐19 at t150 in part F versus fragment 1‐35 in part D): half
- Cmax (human, plasma, iv, 268 pmol/kg/h, SEM): 0.43 ± 0.0899 nM
